In PubChem BioAssay AID248 (DTP/NCI, 2004):
Where “and” joins values, the source holds several entries; their conditions need not be identical. Equal values may be shown once. Toxic doses and inconclusive results are not listed. Cut-off read from the data, not from the text of the source: active = T/C of 150% or more; inactive = T/C below 125%.

System: L1210 leukemia ip in BDF1 mice, survival T/C
Assay: NCI In Vivo Anticancer Drug Screen. Data for tumor model L1210 Leukemia (intraperitoneal) in B6D2F1 (BDF1) mice
Conditions: endpoint: mean survival time, higher = longer survival
In short: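 Survival endpoint. Drug-treated group vs vehicle group, expressed as T divided by C. Tumor passaged by transplantation.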

[1] = dose: 100.0 mg/kg/injection, schedule: Q01DX001 (ip), vehicle: carboxymethylcellulose (CMC)
[2] = dose: 100.0 mg/kg/injection, schedule: Q01DX009 (ip), vehicle: carboxymethylcellulose (CMC)
[3] = dose: 100.0 mg/kg/injection, schedule: Q04DX002 (ip), vehicle: carboxymethylcellulose (CMC)
[4] = dose: 100.0 mg/kg/injection, schedule: Q04DX003 (ip), vehicle: carboxymethylcellulose (CMC)
[5] = dose: 200.0 mg/kg/injection, schedule: Q01DX001 (ip), vehicle: carboxymethylcellulose (CMC)
[6] = dose: 200.0 mg/kg/injection, schedule: Q01DX009 (ip), vehicle: carboxymethylcellulose (CMC)
[7] = dose: 200.0 mg/kg/injection, schedule: Q04DX002 (ip), vehicle: carboxymethylcellulose (CMC)
[8] = dose: 200.0 mg/kg/injection, schedule: Q04DX003 (ip), vehicle: carboxymethylcellulose (CMC)
[9] = dose: 400.0 mg/kg/injection, schedule: Q01DX001 (ip), vehicle: carboxymethylcellulose (CMC)
[10] = dose: 400.0 mg/kg/injection, schedule: Q01DX009 (ip), vehicle: carboxymethylcellulose (CMC)
[11] = dose: 400.0 mg/kg/injection, schedule: Q04DX002 (ip), vehicle: carboxymethylcellulose (CMC)
[12] = dose: 400.0 mg/kg/injection, schedule: Q04DX003 (ip), vehicle: carboxymethylcellulose (CMC)
[13] = dose: 100.0 mg/kg/injection, schedule: Q01DX009 (ip), vehicle: Klucel (hydroxypropylcellulose) (HPC)
[14] = dose: 200.0 mg/kg/injection, schedule: Q01DX009 (ip), vehicle: Klucel (hydroxypropylcellulose) (HPC)
[15] = dose: 400.0 mg/kg/injection, schedule: Q01DX009 (ip), vehicle: Klucel (hydroxypropylcellulose) (HPC)
[16] = dose: 100.0 mg/kg/injection, schedule: Q04DX003 (ip), vehicle: Klucel (hydroxypropylcellulose) (HPC)
[17] = dose: 200.0 mg/kg/injection, schedule: Q04DX003 (ip), vehicle: Klucel (hydroxypropylcellulose) (HPC)
[18] = dose: 100.0 mg/kg/injection, schedule: Q04DX003 (ip), vehicle: saline
[19] = dose: 200.0 mg/kg/injection, schedule: Q04DX003 (ip), vehicle: saline
[20] = dose: 50.0 mg/kg/injection, schedule: Q01DX001 (ip), vehicle: saline
[21] = dose: 100.0 mg/kg/injection, schedule: Q01DX001 (ip), vehicle: saline
[22] = dose: 200.0 mg/kg/injection, schedule: Q01DX001 (ip), vehicle: saline
[23] = dose: 400.0 mg/kg/injection, schedule: Q01DX001 (ip), vehicle: saline
[24] = dose: 100.0 mg/kg/injection, schedule: Q04DX003 (ip), vehicle: saline with Tween-80
[25] = dose: 200.0 mg/kg/injection, schedule: Q04DX003 (ip), vehicle: saline with Tween-80
[26] = dose: 400.0 mg/kg/injection, schedule: Q04DX003 (ip), vehicle: saline with Tween-80

Measured: T/C

CN(C)CCC(=O)c1cccc([N+](=O)[O-])c1
inactive: dose: 75.0 mg/kg/injection, schedule: Q01DX001 (ip), vehicle: other 102 % of control

CN(C)c1ccc(C(C#N)OC(=O)c2ccccc2)cc1 (configuration not stated)
inactive: [1] 89 % of control | [2] 93 % of control | [3] 97 % of control | [4] 100 % of control | [5] 94 % of control | [6] 98 % of control and 90 % of control | [7] 97 % of control | [8] 89 % of control | [9] 91 % of control | [10] 98 % of control and 86 % of control | [11] 94 % of control | [12] 94 % of control

CC(=O)NC1=C(NC(C)C)C(=O)c2ccccc2C1=O
inactive: dose: 12.5 mg/kg/injection, schedule: Q04DX003 (ip), vehicle: saline with Tween-80 94 % of control

S=C(NCc1cccc2ccccc12)Nc1ccccc1
inactive: [13] 95 % of control | [14] 97 % of control | [15] 104 % of control

c1ccc(C2=Nc3ccccc3NC2c2ccccc2)cc1 (configuration not stated)
inactive: dose: 50.0 mg/kg/injection, schedule: Q04DX003 (ip), vehicle: Klucel (hydroxypropylcellulose) (HPC) 100 % of control | [16] 89 % of control | [17] 98 % of control

Cc1ccc(S(=O)(=O)NC(=O)Oc2c(C(C)C)cccc2C(C)C)cc1
inactive: dose: 50.0 mg/kg/injection, schedule: Q04DX003 (ip), vehicle: saline 110 % of control | [18] 110 % of control | [19] 102 % of control

O=C1c2ccccc2C(=O)N1OCCCCON1C(=O)c2ccccc2C1=O
inactive: [20] 100 % of control | [21] 106 % of control | [22] 106 % of control | [23] 102 % of control

O=C(O)C1CCOCC1
inactive: [13] 98 % of control | [16] 96 % of control | [14] 95 % of control | [17] 89 % of control | [15] 111 % of control | dose: 400.0 mg/kg/injection, schedule: Q04DX003 (ip), vehicle: Klucel (hydroxypropylcellulose) (HPC) 88 % of control

CCCN(CCC#N)CN1C(=O)c2ccccc2C1=O
inactive: [1] 110 % of control | [2] 90 % of control | [3] 98 % of control and 100 % of control | [4] 95 % of control | [5] 113 % of control | [6] 93 % of control | [7] 94 % of control and 102 % of control | [8] 101 % of control | [9] 97 % of control | [10] 100 % of control | [11] 94 % of control and 97 % of control | [12] 107 % of control

Brc1ccc(S/C=C/c2ccccc2)cc1
inactive: [21] 112 % of control | [22] 102 % of control | [23] 101 % of control

COC(=O)c1cc(C)cc(N)c1C
inactive: [21] 102 % of control | [22] 109 % of control | [23] 104 % of control

Cc1cc(N(CCOS(C)(=O)=O)CCOS(C)(=O)=O)ccc1C=Nc1ccc(-c2csc(Cc3ccccc3)n2)cc1
inactive: dose: 6.25 mg/kg/injection, schedule: Q01DX009 (ip), vehicle: Klucel (hydroxypropylcellulose) (HPC) 105 % of control | dose: 12.5 mg/kg/injection, schedule: Q01DX009 (ip), vehicle: Klucel (hydroxypropylcellulose) (HPC) 110 % of control | dose: 25.0 mg/kg/injection, schedule: Q01DX009 (ip), vehicle: Klucel (hydroxypropylcellulose) (HPC) 122 % of control

COc1cc(N)ccn1
inactive: dose: 100.0 mg/kg/injection, schedule: Q04DX003 (ip), vehicle: acetone 95 % of control | dose: 200.0 mg/kg/injection, schedule: Q04DX003 (ip), vehicle: acetone 94 % of control | dose: 400.0 mg/kg/injection, schedule: Q04DX003 (ip), vehicle: acetone 94 % of control

CCN(CC)C(=O)C(Cc1ccc(OC)c(OC)c1)C(Cc1ccc(OC)c(OC)c1)C(=O)O (configuration not stated)
inactive: [24] 114 % of control | [25] 102 % of control | [26] 105 % of control

COc1ccc(NC(c2ccco2)P(=O)(c2ccccc2)c2ccccc2)cc1 (configuration not stated)
inactive: [13] 91 % of control | [14] 104 % of control | [15] 98 % of control

N#CCCC1C2CCC(C2)C1C#N (configuration not stated)
inactive: dose: 3.0 mg/kg/injection, schedule: Q01DX009 (ip), vehicle: Klucel (hydroxypropylcellulose) (HPC) 96 % of control | dose: 3.0 mg/kg/injection, schedule: Q04DX003 (ip), vehicle: Klucel (hydroxypropylcellulose) (HPC) 96 % of control | dose: 6.0 mg/kg/injection, schedule: Q01DX009 (ip), vehicle: Klucel (hydroxypropylcellulose) (HPC) 96 % of control | dose: 6.0 mg/kg/injection, schedule: Q04DX003 (ip), vehicle: Klucel (hydroxypropylcellulose) (HPC) 98 % of control | dose: 12.0 mg/kg/injection, schedule: Q01DX009 (ip), vehicle: Klucel (hydroxypropylcellulose) (HPC) 98 % of control | dose: 12.0 mg/kg/injection, schedule: Q04DX003 (ip), vehicle: Klucel (hydroxypropylcellulose) (HPC) 98 % of control | dose: 12.5 mg/kg/injection, schedule: Q04DX003 (ip), vehicle: Klucel (hydroxypropylcellulose) (HPC) 105 % of control

CN(C)c1nc2c(N)ncnc2n1C1OC(CO)C(O)C1O (configuration not stated)
inactive: dose: 6.25 mg/kg/injection, schedule: Q01DX009 (ip), vehicle: saline 100 % of control | dose: 12.5 mg/kg/injection, schedule: Q01DX005 (ip), vehicle: saline 95 % of control | dose: 12.5 mg/kg/injection, schedule: Q01DX009 (ip), vehicle: saline 96 % of control | dose: 25.0 mg/kg/injection, schedule: Q01DX005 (ip), vehicle: saline 101 % of control | dose: 25.0 mg/kg/injection, schedule: Q01DX009 (ip), vehicle: saline 110 % of control | dose: 50.0 mg/kg/injection, schedule: Q01DX005 (ip), vehicle: saline 108 % of control

COC1(C(=O)OOC(C)(C)C)CC1(c1ccccc1)c1ccccc1 (configuration not stated)
inactive: dose: 50.0 mg/kg/injection, schedule: Q01DX001 (ip), vehicle: Klucel (hydroxypropylcellulose) (HPC) 107 % of control | dose: 100.0 mg/kg/injection, schedule: Q01DX001 (ip), vehicle: Klucel (hydroxypropylcellulose) (HPC) 102 % of control | dose: 200.0 mg/kg/injection, schedule: Q01DX001 (ip), vehicle: Klucel (hydroxypropylcellulose) (HPC) 100 % of control

CN(C)N=Nc1cccc(C(=O)O)c1
inactive: dose: 50.0 mg/kg/injection, schedule: Q04DX002 (ip), vehicle: other 106 % of control | dose: 100.0 mg/kg/injection, schedule: Q04DX002 (ip), vehicle: other 113 % of control | dose: 200.0 mg/kg/injection, schedule: Q04DX002 (ip), vehicle: other 113 % of control | dose: 400.0 mg/kg/injection, schedule: Q04DX002 (ip), vehicle: other 124 % of control

CCOC(=O)C1=C(O)c2c(sc(C)c2-c2ccccc2)N(S(=O)(=O)c2ccc(C)cc2)CC1
inactive: dose: 50.0 mg/kg/injection, schedule: Q04DX003 (ip), vehicle: saline with Tween-80 98 % of control | [24] 93 % of control | [25] 93 % of control | [26] 98 % of control

N#C/C(=C\c1ccccn1)c1ccc(Cl)cc1
inactive: dose: 100.0 mg/kg/injection, schedule: Q01DX001 (ip), vehicle: other 95 % of control | dose: 200.0 mg/kg/injection, schedule: Q01DX001 (ip), vehicle: other 92 % of control | dose: 400.0 mg/kg/injection, schedule: Q01DX001 (ip), vehicle: other 94 % of control

O=S(=O)(O)c1ccc(O)c2ncccc12.[Zn+2]
inactive: [20] 100 % of control | [21] 97 % of control | [22] 97 % of control | [23] 100 % of control

NNC(=O)CCCCC(=O)NN
inactive: [18] 100 % of control | [19] 97 % of control | dose: 400.0 mg/kg/injection, schedule: Q04DX003 (ip), vehicle: saline 100 % of control
